Like-named read-outs stand apart in the source and are kept apart here.
Assays:
[1] = tested on: Key Broadleaf Weed and Crop Species; assay: Post-emergent Test II herbicidal activity (Table 15); type: in vivo; conditions: post-emergence, 336 h, 14 d; for pest or weed control at 35 g/ha: 35 g ai/ha; for pest or weed control at 70 g/ha: 70 g ai/ha; for pest or weed control at 140 g/ha: 140 g ai/ha
Method in brief: (§1)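 Greenhouse-grown seedlings at first/second true leaf receive a track spray at 187 L/ha, using a highest rate plus two-fold serial dilutions down to 1/16×. Watering is by subirrigation to avoid wash-off. Percent injury (0-100) is judged by eye at 14 d against untreated plants.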

[2] = tested on: Key Grass and Sedge Weeds as well as Grass Crops; assay: Post-emergent Test II herbicidal activity (Table 16); type: in vivo; conditions: post-emergence, 336 h, 14 d; for pest or weed control at 35 g/ha: 35 g ai/ha; for pest or weed control at 70 g/ha: 70 g ai/ha; for pest or weed control at 140 g/ha: 140 g ai/ha
Method in brief: as §1

[3] = Abutilon theophrasti, velvetleaf (Abutilon theophrasti), read-out: Visual Growth Reduction (%) 14 Days After Application, ABUTH
[4] = Amaranthus retroflexus, redroot pigweed (Amaranthus retroflexus), read-out: Visual Growth Reduction (%) 14 Days After Application, AMARE
[5] = Brassica napus, oilseed rape, canola (Brassica napus), read-out: Visual Growth Reduction (%) 14 Days After Application, BRSNN
[6] = Chenopodium album, lambsquarters (Chenopodium album), read-out: Visual Growth Reduction (%) 14 Days After Application, CHEAL
[7] = Euphorbia heterophylla, wild poinsettia (Euphorbia heterophylla), read-out: Visual Growth Reduction (%) 14 Days After Application, EPHHL
[8] = Helianthus annuus, sunflower (Helianthus annuus), read-out: Visual Growth Reduction (%) 14 Days After Application, HELAN
[9] = Cyperus esculentus, yellow nutsedge (Cyperus esculentus), read-out: Visual Growth Reduction (%) 14 Days After Application, CYPES
[10] = Echinochloa crus-galli, barnyardgrass (Echinochloa crus-galli), read-out: Visual Growth Reduction (%) 14 Days After Application, ECHCG
[11] = Oryza sativa, rice (Oryza sativa), read-out: Visual Growth Reduction (%) 14 Days After Application, ORYSA
[12] = Setaria faberi, giant foxtail (Setaria faberi), read-out: Visual Growth Reduction (%) 14 Days After Application, SETFA
[13] = Triticum aestivum, wheat, spring (Triticum aestivum), read-out: Visual Growth Reduction (%) 14 Days After Application, TRZAS
[14] = Zea mays, maize, corn (Zea mays), read-out: Visual Growth Reduction (%) 14 Days After Application, ZEAMX

COC(=O)c1nc(-c2ccc3occc3c2)nc(N)c1OC [Compound 2.06]
pest or weed control at 35 g/ha [1, 3]: 0 to 29%
pest or weed control at 70 g/ha [1, 3]: 0 to 29%
pest or weed control at 140 g/ha [1, 3]: 75 to 84%
pest or weed control at 35 g/ha [1, 4]: 75 to 84%
pest or weed control at 70 g/ha [1, 4]: 95 to 100%
pest or weed control at 140 g/ha [1, 4]: 95 to 100%
pest or weed control at 35 g/ha [1, 5]: 30 to 44%
pest or weed control at 70 g/ha [1, 5]: 60 to 74%
pest or weed control at 140 g/ha [1, 5]: 85 to 94%
pest or weed control at 35 g/ha [1, 6]: 60 to 74%
pest or weed control at 70 g/ha [1, 6]: 75 to 84%
pest or weed control at 140 g/ha [1, 6]: 85 to 94%
pest or weed control at 35 g/ha [1, 7]: 30 to 44%
pest or weed control at 70 g/ha [1, 7]: 75 to 84%
pest or weed control at 140 g/ha [1, 7]: 95 to 100%
pest or weed control at 35 g/ha [1, 8]: 60 to 74%
pest or weed control at 70 g/ha [1, 8]: 75 to 84%
pest or weed control at 140 g/ha [1, 8]: 85 to 94%
pest or weed control at 35 g/ha [2, 9]: 0 to 29%
pest or weed control at 70 g/ha [2, 9]: 0 to 29%
pest or weed control at 140 g/ha [2, 9]: 0 to 29%
pest or weed control at 35 g/ha [2, 10]: 0 to 29%
pest or weed control at 70 g/ha [2, 10]: 45 to 59%
pest or weed control at 140 g/ha [2, 10]: 95 to 100%
pest or weed control at 35 g/ha [2, 11]: 0 to 29%
pest or weed control at 70 g/ha [2, 11]: 0 to 29%
pest or weed control at 140 g/ha [2, 11]: 0 to 29%
pest or weed control at 35 g/ha [2, 12]: 0 to 29%
pest or weed control at 70 g/ha [2, 12]: 0 to 29%
pest or weed control at 140 g/ha [2, 12]: 0 to 29%
pest or weed control at 35 g/ha [2, 13]: 0 to 29%
pest or weed control at 70 g/ha [2, 13]: 0 to 29%
pest or weed control at 140 g/ha [2, 13]: 0 to 29%
pest or weed control at 35 g/ha [2, 14]: 0 to 29%
pest or weed control at 70 g/ha [2, 14]: 0 to 29%
pest or weed control at 140 g/ha [2, 14]: 0 to 29%

Nc1c(F)c(-c2ccc(Cl)c3occc23)nc(C(=O)O)c1Cl [Compound 2.18]
pest or weed control at 35 g/ha [1, 3]: 0 to 29%
pest or weed control at 70 g/ha [1, 3]: 0 to 29%
pest or weed control at 140 g/ha [1, 3]: 0 to 29%
pest or weed control at 35 g/ha [1, 4]: 95 to 100%
pest or weed control at 70 g/ha [1, 4]: 95 to 100%
pest or weed control at 140 g/ha [1, 4]: 95 to 100%
pest or weed control at 35 g/ha [1, 5]: 45 to 59%
pest or weed control at 70 g/ha [1, 5]: 60 to 74%
pest or weed control at 140 g/ha [1, 5]: 60 to 74%
pest or weed control at 35 g/ha [1, 6]: 85 to 94%
pest or weed control at 70 g/ha [1, 6]: 85 to 94%
pest or weed control at 140 g/ha [1, 6]: 85 to 94%
pest or weed control at 35 g/ha [1, 7]: 0 to 29%
pest or weed control at 70 g/ha [1, 7]: 0 to 29%
pest or weed control at 140 g/ha [1, 7]: 0 to 29%
pest or weed control at 35 g/ha [1, 8]: 75 to 84%
pest or weed control at 70 g/ha [1, 8]: 75 to 84%
pest or weed control at 140 g/ha [1, 8]: 85 to 94%
pest or weed control at 35 g/ha [2, 9]: 0 to 29%
pest or weed control at 70 g/ha [2, 9]: 0 to 29%
pest or weed control at 140 g/ha [2, 9]: 0 to 29%
pest or weed control at 35 g/ha [2, 10]: 0 to 29%
pest or weed control at 70 g/ha [2, 10]: 0 to 29%
pest or weed control at 140 g/ha [2, 10]: 0 to 29%
pest or weed control at 35 g/ha [2, 11]: 0 to 29%
pest or weed control at 70 g/ha [2, 11]: 0 to 29%
pest or weed control at 140 g/ha [2, 11]: 0 to 29%
pest or weed control at 35 g/ha [2, 12]: 0 to 29%
pest or weed control at 70 g/ha [2, 12]: 0 to 29%
pest or weed control at 140 g/ha [2, 12]: 0 to 29%
pest or weed control at 35 g/ha [2, 13]: 0 to 29%
pest or weed control at 70 g/ha [2, 13]: 0 to 29%
pest or weed control at 140 g/ha [2, 13]: 0 to 29%
pest or weed control at 35 g/ha [2, 14]: 0 to 29%
pest or weed control at 70 g/ha [2, 14]: 0 to 29%
pest or weed control at 140 g/ha [2, 14]: 0 to 29%
